Measurements from ChEMBL document CHEMBL4507291 (2021).

Key:
[1] = biological target: Mitotic checkpoint serine/threonine-protein kinase BUB1 (Homo sapiens) (UniProt O43683)
[2] = biological target: SRSF protein kinase 3 (Homo sapiens) (UniProt Q9UPE1)
[3] = biological target: T1, Mitogen-activated protein kinase kinase kinase kinase 2 (Homo sapiens) (UniProt Q12851)
T1 sequence (whole entry): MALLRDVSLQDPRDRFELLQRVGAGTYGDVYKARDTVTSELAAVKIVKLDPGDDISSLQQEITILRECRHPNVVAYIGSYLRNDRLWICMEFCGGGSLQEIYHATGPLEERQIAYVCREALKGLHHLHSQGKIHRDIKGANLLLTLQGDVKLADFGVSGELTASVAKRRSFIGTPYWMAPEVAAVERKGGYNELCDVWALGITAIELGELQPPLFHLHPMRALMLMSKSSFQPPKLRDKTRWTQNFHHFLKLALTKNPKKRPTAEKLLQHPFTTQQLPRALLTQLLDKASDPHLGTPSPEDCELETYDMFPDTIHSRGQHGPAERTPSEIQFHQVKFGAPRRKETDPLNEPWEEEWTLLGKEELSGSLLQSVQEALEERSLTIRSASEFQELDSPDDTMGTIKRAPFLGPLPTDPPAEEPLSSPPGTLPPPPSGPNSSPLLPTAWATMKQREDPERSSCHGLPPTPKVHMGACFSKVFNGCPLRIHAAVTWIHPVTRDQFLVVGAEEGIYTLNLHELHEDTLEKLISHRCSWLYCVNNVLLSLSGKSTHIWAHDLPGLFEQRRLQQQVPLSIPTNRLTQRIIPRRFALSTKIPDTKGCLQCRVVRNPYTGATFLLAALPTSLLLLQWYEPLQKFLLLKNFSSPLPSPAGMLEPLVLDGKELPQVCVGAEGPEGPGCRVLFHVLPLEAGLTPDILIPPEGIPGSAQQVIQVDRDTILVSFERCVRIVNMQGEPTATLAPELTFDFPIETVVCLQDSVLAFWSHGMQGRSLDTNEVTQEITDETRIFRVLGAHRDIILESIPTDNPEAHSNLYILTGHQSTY

[4] = biological target: Serine/threonine-protein kinase 32A (Homo sapiens) (UniProt Q8WU08)
[5] = biological target: Dual specificity mitogen-activated protein kinase kinase 2 (Homo sapiens) (UniProt P36507)
[6] = biological target: Wee1-like protein kinase 2 (Homo sapiens) (UniProt P0C1S8)
[7] = biological target: Serine/threonine-protein kinase SIK2 (Homo sapiens) (UniProt Q9H0K1)
[8] = biological target: 5-hydroxytryptamine receptor 1E (Homo sapiens) (UniProt P28566); conditions: Compound concentration 10.0 uM
[9] = biological target: T2, Ephrin type-B receptor 1 (Homo sapiens) (UniProt P54762)
T2 sequence (whole entry): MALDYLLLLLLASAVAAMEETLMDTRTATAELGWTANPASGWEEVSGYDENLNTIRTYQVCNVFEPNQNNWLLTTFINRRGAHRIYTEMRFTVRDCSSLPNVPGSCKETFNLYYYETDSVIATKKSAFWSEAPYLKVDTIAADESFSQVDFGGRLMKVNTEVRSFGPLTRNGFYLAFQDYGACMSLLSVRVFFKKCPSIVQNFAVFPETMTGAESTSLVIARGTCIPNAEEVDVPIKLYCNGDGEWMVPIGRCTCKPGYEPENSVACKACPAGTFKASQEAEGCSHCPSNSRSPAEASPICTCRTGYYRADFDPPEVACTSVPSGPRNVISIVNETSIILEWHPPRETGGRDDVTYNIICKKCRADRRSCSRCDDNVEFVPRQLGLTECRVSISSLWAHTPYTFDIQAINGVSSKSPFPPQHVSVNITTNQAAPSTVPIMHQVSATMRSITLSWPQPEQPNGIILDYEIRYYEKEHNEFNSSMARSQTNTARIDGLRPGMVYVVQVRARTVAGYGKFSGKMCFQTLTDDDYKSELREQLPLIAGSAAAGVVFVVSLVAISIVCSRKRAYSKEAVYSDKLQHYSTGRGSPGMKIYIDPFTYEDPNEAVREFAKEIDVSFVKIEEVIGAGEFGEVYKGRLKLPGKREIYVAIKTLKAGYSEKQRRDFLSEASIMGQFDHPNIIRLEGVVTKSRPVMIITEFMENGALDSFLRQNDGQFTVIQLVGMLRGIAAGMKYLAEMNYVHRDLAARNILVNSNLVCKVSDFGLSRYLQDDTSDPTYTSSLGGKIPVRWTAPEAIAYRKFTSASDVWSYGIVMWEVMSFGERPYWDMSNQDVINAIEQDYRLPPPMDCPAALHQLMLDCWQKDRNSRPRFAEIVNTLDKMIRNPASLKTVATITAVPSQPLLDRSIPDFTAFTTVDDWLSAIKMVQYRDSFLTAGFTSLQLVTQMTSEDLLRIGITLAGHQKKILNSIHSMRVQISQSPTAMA

[10] = biological target: T3, Inhibitor of nuclear factor kappa-B kinase subunit alpha (Homo sapiens) (UniProt O15111)
T3 sequence (whole entry): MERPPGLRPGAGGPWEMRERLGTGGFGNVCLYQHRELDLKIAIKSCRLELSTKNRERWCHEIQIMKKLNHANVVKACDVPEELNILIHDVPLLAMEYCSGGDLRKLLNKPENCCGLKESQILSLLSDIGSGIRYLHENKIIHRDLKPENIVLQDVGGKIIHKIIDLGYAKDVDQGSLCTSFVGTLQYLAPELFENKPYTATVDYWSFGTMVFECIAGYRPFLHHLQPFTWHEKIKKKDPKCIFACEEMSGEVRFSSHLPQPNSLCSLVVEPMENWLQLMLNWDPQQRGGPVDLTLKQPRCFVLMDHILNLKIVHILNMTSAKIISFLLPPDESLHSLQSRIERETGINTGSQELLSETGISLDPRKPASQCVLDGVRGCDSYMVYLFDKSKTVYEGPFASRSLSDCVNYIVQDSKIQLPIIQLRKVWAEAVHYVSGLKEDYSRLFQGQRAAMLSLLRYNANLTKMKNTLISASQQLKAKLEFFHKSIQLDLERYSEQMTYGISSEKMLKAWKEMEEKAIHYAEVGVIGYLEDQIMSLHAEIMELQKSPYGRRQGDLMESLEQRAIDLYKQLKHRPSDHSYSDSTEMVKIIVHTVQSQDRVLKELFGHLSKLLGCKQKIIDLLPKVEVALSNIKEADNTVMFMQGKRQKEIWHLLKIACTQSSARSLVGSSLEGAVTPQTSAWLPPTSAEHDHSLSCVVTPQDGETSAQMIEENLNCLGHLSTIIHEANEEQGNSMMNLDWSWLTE

[11] = Compound concentration 100.0 nM
[12] = Compound concentration 1000.0 nM

Sequence of Wee1-like protein kinase 2 (Homo sapiens) (P0C1S8 whole entry, looked up): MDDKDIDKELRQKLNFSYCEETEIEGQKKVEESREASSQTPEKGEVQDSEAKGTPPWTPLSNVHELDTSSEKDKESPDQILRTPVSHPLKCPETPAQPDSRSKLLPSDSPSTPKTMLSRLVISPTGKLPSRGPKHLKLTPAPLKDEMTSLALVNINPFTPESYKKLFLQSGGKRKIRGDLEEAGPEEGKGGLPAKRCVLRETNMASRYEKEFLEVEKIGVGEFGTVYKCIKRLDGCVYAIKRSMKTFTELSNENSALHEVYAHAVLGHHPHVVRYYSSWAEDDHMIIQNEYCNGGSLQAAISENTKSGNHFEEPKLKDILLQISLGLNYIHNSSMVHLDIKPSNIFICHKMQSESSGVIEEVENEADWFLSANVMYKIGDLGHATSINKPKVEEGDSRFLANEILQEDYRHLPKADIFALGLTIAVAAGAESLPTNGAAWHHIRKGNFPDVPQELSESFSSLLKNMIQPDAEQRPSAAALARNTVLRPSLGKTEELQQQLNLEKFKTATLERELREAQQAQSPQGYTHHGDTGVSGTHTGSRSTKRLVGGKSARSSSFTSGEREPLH
Sequence of Mitotic checkpoint serine/threonine-protein kinase BUB1 (Homo sapiens) (O43683 whole entry, looked up): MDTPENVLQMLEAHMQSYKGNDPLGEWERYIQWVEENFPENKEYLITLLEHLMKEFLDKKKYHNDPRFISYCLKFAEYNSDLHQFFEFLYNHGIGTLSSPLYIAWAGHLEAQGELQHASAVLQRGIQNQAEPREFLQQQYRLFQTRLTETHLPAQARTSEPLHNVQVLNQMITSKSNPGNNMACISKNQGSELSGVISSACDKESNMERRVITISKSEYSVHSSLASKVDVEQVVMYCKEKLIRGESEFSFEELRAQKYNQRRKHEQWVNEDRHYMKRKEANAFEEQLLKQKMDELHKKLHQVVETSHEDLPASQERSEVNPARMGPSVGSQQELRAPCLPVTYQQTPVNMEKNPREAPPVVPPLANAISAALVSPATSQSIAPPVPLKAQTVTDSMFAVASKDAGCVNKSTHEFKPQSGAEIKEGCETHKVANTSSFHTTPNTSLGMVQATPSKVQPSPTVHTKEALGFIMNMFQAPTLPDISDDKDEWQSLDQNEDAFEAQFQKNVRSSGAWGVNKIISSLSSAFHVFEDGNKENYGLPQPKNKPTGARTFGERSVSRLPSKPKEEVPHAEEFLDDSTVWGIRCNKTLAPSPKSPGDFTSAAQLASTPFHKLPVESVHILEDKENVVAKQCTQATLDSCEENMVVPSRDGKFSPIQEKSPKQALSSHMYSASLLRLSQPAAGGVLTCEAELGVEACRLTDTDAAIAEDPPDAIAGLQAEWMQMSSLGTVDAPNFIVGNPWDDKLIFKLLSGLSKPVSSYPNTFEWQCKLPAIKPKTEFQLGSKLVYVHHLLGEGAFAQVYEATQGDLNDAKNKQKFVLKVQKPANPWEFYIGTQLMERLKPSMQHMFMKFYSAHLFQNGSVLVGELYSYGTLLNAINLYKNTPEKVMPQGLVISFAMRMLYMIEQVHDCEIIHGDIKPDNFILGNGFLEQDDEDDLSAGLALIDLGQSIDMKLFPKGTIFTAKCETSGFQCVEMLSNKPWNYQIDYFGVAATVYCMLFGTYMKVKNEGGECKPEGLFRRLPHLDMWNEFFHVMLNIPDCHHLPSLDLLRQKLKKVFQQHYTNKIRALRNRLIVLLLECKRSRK
Sequence of 5-hydroxytryptamine receptor 1E (Homo sapiens) (P28566 whole entry): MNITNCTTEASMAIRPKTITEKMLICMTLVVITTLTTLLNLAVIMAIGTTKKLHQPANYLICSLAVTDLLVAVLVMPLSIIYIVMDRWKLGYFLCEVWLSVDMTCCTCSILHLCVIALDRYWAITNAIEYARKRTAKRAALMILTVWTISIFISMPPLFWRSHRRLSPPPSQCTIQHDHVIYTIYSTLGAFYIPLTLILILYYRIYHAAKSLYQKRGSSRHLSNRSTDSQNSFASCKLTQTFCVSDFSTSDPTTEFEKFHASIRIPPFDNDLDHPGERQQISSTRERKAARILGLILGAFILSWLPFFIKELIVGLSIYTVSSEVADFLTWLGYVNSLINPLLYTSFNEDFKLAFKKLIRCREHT
Sequence of Serine/threonine-protein kinase 32A (Homo sapiens) (Q8WU08 whole entry): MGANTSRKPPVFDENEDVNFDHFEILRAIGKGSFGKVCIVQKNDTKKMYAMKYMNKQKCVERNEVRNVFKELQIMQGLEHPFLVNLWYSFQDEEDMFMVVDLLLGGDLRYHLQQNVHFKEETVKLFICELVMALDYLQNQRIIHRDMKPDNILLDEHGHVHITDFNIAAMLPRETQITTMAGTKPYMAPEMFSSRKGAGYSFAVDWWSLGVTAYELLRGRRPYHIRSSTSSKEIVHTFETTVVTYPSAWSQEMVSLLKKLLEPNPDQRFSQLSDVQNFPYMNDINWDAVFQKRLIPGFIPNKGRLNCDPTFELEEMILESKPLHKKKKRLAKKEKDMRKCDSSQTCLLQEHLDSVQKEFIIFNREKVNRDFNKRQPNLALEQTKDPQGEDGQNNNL
Sequence of Dual specificity mitogen-activated protein kinase kinase 2 (Homo sapiens) (P36507 whole entry): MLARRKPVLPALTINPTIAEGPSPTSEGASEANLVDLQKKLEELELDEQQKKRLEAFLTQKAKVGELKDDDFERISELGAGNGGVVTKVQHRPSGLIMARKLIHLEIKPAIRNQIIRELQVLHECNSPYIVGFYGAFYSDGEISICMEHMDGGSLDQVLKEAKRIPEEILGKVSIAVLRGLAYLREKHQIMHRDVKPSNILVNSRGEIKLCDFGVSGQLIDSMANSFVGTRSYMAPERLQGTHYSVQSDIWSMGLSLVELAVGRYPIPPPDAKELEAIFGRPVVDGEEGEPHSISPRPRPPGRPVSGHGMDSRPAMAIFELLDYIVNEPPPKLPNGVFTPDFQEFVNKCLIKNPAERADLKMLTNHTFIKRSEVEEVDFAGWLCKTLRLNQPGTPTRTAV
Sequence of Serine/threonine-protein kinase SIK2 (Homo sapiens) (Q9H0K1 whole entry, looked up): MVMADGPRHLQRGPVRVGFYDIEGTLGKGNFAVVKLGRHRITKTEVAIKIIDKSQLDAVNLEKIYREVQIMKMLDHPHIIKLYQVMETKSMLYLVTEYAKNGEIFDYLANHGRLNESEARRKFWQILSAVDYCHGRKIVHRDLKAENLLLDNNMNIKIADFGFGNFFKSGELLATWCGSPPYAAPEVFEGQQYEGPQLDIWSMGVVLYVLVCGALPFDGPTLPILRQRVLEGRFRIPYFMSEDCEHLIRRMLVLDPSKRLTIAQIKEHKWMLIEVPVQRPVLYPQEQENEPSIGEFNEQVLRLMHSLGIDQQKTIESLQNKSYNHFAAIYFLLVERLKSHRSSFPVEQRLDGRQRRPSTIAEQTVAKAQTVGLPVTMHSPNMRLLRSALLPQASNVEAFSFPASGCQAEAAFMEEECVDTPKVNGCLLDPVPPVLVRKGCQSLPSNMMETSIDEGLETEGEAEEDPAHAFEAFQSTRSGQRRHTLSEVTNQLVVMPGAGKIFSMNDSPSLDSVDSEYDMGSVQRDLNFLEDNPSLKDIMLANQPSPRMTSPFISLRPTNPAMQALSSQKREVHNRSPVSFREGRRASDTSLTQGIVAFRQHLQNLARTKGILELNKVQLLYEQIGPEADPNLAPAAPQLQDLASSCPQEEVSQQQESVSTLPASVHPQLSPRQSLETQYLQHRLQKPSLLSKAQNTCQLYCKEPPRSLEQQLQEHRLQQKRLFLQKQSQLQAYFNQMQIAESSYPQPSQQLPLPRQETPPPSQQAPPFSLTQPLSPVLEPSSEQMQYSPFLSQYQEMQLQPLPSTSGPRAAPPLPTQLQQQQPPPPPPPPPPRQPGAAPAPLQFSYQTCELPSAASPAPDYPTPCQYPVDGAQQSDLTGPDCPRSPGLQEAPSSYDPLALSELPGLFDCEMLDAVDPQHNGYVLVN
Sequence of SRSF protein kinase 3 (Homo sapiens) (Q9UPE1 whole entry): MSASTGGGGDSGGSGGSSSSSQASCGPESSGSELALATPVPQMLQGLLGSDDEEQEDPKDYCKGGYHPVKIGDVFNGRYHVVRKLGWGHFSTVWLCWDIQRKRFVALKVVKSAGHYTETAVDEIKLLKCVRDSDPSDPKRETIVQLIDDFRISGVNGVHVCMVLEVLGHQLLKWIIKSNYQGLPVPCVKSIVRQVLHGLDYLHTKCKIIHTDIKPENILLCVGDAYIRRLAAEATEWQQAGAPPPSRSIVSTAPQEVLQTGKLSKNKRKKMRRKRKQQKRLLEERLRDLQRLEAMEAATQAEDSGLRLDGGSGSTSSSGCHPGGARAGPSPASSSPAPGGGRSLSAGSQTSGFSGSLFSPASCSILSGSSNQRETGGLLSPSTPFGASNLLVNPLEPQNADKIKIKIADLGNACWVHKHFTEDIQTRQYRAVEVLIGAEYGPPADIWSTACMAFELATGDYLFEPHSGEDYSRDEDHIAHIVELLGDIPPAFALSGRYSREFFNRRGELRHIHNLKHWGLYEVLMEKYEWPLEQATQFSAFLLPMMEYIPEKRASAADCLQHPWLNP

C[C@@H]1CN(c2cc(-c3n[nH]c4ccc(OC5(C)CC5)cc34)ncn2)C[C@H](C)O1 [MLi-2]
inactive: residual activity [1, 11] 84% | residual activity [2, 11] 100% | residual activity [3, 11] 76% | residual activity [4, 11] 92% | residual activity [5, 11] 85% | residual activity [6, 11] 100% | residual activity [7, 11] 87% | inhibition [8] -7.52% | residual activity [9, 11] 83% | residual activity [10, 11] 76%

C[C@@H]1CN(c2cc(-c3nn(C)c4ccc(OC5(C)CC5)cc34)ncn2)C[C@H](C)O1 [MLi-2-NC]
inactive: residual activity [1, 12] 89% | residual activity [2, 12] 98% | residual activity [3, 12] 81% | residual activity [4, 12] 78% | residual activity [5, 12] 73% | residual activity [6, 12] 96% | residual activity [7, 12] 100% | inhibition [8] -0.18% | residual activity [9, 12] 99% | residual activity [10, 12] 75%
